From patent US5840745A, “Hydrosoluble 3-arylidene-2-oxindole derivatives as tyrosine kinase inhibitors” (Pharmacia S. p. A., priority 1995, dated 1998)
Where a name gives a salt, the structure may show the parent alone.

Tests used:
[1] = test system: K562 cells (human chronic myeloid leukemia); test: K562 cell growth inhibition assay; type: cell-based; conditions: 72 h, 10000 cells/well, cell count versus untreated control cells
Method: K562 Cell Growth Inhibition Assay
K562 cells, a human myelogenous leukemia cell line, were seeded into a 24 wells tissue culture plate (Falcon 3047) (10000/well) in the presence of increasing concentrations of the compounds. After 72 h, cells were harvested and were counted using a cell counter (Coulter Counter--ZM). The percent of inhibition was evaluated in respect to the untreated control cells.
The inhibitory activity data for two representative compounds according to the present invention, obtained both in the in vitro p45 v-abl kinase assay and the in vivo human chronic myeloid leukemia K562 cell growth inhibition assay described above, are set out in the following Table I.

[2] = biological target: p45 v-abl tyrosine kinase; test: in vitro p45 v-abl kinase assay ((Val^5)-Angiotension II phosphorylation); type: biochemical, Abelson murine leukaemia virus; conditions: 40 ng purified abl-kinase; peptide (2 Mm) and ATP (50 μM); 30° C., pH 8.0; triplicated determinations; read-out: IC50 v-abl, inhibition of p45 v-abl kinase
Method: p45 v-abl Kinase Purification
The enzyme used in our test was the p45 v-abl tyrosine kinase which represents the catalytic domain of the Abelson tyrosine kinase (isolated from the Abelson murine leukaemia virus). The p45 v-abl kinase was produced and isolated as described by Wang et al. in J. Biol. Chem. 260, 64 (1985) and by Ferguson et al. in J. Biol. Chem. 260, 3652 (1985) and in Biochem. J. 257, 321 (1989).
(Val^5)-Angiotension II phosphorylation was performed by incubation with 40 ng of purified abl-kinase and (γ-^32 p)-ATP, in 50 μl of buffer containing Tris-HCl 25 mM, pH 8.0, MgCl2 10 mM and dithiothreitol 0.1 mM (kinase buffer). The reaction mixture was incubated for the indicated time at 30° C. and the reaction stopped by adding 50 μl of 5% trichloroacetic acid. After a brief incubation on ice, tubes were centrifuged. The supernatants were spotted on phosphocellulose paper squares (Whatman P-81) and washed extensively in acetic acid. The radioactivity bound to dried phosphocellulose squares was measured in a liquid scintillation counter. IC50 values were calculated from triplicated determinations of each experimental point. Each inhibitor was tested at concentrations ranging from […] in the presence of fixed concentrations of peptide (2 Mm) and ATP (50 μM). […]

SMILES	IC50 [1] [nM]	IC50 [2] [nM]
COc1ccc2[nH]cc(C=C3C(=O)Nc4ccc(NC(=O)CCN5CCCCC5)cc43)c2c1 [5-(3-piperidinopropionylamino)-3-(5-methoxyindol-3-ylmethylene)-2-oxindole.HCl]	3700	1730
CCOC(=O)c1ccc2c(c1)C(=Cc1c[nH]c3ccc(OC)cc13)C(=O)N2 [5-carboethoxy-3-(5-methoxyindol-3-ylmethylene)-2-oxindole]	2340	1990
